Test results: ChEMBL document CHEMBL4732177 (J Med Chem, 2021)
Active and inactive are the calls of the source. Bridge positions count the residues as written; N and C are the ends. Square brackets hold non-standard residues; d marks the D form. Peptide text beside a SMILES is read from it. Aad = N[C@@H](CCCC(=O)O)C(=O)O; Tle = CC(C)(C)[C@H](N)C(=O)O

How the values were obtained:
[1] = molecular target: T1, Neurotensin receptor type 2 (Homo sapiens, UniProt O95665); experiment: Binding affinity to NTS2 (unknown origin)
[2] = test system: Rattus norvegicus; experiment: Antinociceptive activity in Sprague-Dawley rat model of formalin-induced nociception pain assessed as reduction in pain behaviour by measuring less lifting of formalin injected hind paw during acute phase at 1 microg/kg, IT measured for 9 mins; assay type: functional, organism-based; conditions: dose 1.0 µg/kg
[3] = Toxicity in Sprague-Dawley rat assessed as induction of ataxia at 1 microg/kg, IT; conditions: in vivo, icv_or_intrathecal, 0.001 mg/kg, dose 1 µg/kg
[4] = Toxicity in Sprague-Dawley rat assessed as induction of dizziness at 1 microg/kg, IT; conditions: in vivo, icv_or_intrathecal, 0.001 mg/kg, dose 1 µg/kg
[5] = Toxicity in Sprague-Dawley rat assessed as induction of tremor at 1 microg/kg, IT; conditions: in vivo, icv_or_intrathecal, 0.001 mg/kg, dose 1 µg/kg
[6] = Toxicity in Sprague-Dawley rat assessed as induction of drowsiness at 1 microg/kg, IT; conditions: in vivo, icv_or_intrathecal, 0.001 mg/kg, dose 1 µg/kg
[7] = Toxicity in Sprague-Dawley rat assessed as induction of abnormal gait at 1 microg/kg, IT; conditions: in vivo, icv_or_intrathecal, 0.001 mg/kg, dose 1 µg/kg
[8] = Toxicity in Sprague-Dawley rat assessed as induction of hyperactivity at 1 microg/kg, IT; conditions: in vivo, icv_or_intrathecal, 0.001 mg/kg, dose 1 µg/kg
[9] = test system: Rattus norvegicus; experiment: Antinociceptive activity in Sprague-Dawley rat model of formalin-induced nociception pain assessed as reduction in pain behaviour by measuring less lifting of formalin injected hind paw during inflammatory phase at 1 microg/kg, IT; assay type: functional, organism-based; conditions: dose 1.0 µg/kg
[10] = molecular target: Neurotensin receptor type 1 (Homo sapiens, UniProt P30989); experiment: Displacement of [125I]Tyr3-neurotensin from human recombinant NTS1 stably expressed in CHO-K1 cell membranes incubated for 60 mins by gamma counter analysis; design: species or system Cell membrane
[11] = molecular target: T1, Neurotensin receptor type 2; experiment: Displacement of [125I]Tyr3-neurotensin from human recombinant NTS2 stably expressed in human 1321N1 cell membranes incubated for 60 mins by gamma counter analysis; design: species or system Cell membrane
[12] = Stability of compound in rat plasma assessed as half life at 1 mM incubated for 1 to 20 mins by UPLC-MS analysis; assay type: ADME, cell-free; conditions: time 1-20 min
[13] = Stability of compound in rat CSF assessed as half life at 1 mM incubated for 24 hrs by UPLC-MS analysis; assay type: ADME, tissue-based, Cerebrospinal fluid
[14] = test system: Rattus norvegicus; experiment: Antinociceptive activity in Sprague-Dawley rat model assessed as increased in tail withdrawal latency administered intrathecally measured every 10 mins for 60 mins by radiant heat tail-flick test; assay type: functional, organism-based; conditions: dose 10-150 µg/kg
[15] = test system: Rattus norvegicus; experiment: Antinociceptive activity in Sprague-Dawley rat model assessed as maximum efficacy causing increase in tail withdrawal latency administered intrathecally measured every 10 mins for 60 mins by radiant heat tail-flick test; assay type: functional; conditions: 1 h
[16] = test system: Rattus norvegicus; experiment: Antinociceptive activity in Sprague-Dawley rat model assessed as maximum possible effect at 10 microg/kg, IT measured every 10 mins for 60 mins by radiant heat tail-flick test relative to control; assay type: functional; conditions: dose 10 µg/kg, 1 h
[17] = test system: Rattus norvegicus; experiment: Antinociceptive activity in Sprague-Dawley rat model assessed as maximum possible effect at 30 microg/kg, IT measured every 10 mins for 60 mins by radiant heat tail-flick test relative to control; assay type: functional; conditions: dose 30 µg/kg, 1 h
[18] = test system: Rattus norvegicus; experiment: Antinociceptive activity in Sprague-Dawley rat model assessed as maximum possible effect at 60 microg/kg, IT measured every 10 mins for 60 mins by radiant heat tail-flick test relative to control; assay type: functional; conditions: dose 60 µg/kg, 1 h
[19] = test system: Rattus norvegicus; experiment: Antinociceptive activity in Sprague-Dawley rat model assessed as maximum possible effect at 90 microg/kg, IT measured every 10 mins for 60 mins by radiant heat tail-flick test relative to control; assay type: functional; conditions: dose 90 µg/kg, 1 h
[20] = test system: Rattus norvegicus; experiment: Antinociceptive activity in Sprague-Dawley rat model assessed as maximum possible effect at 150 microg/kg, IT measured every 10 mins for 60 mins by radiant heat tail-flick test relative to control; assay type: functional; conditions: dose 150 µg/kg, 1 h
[21] = test system: Rattus norvegicus; experiment: Antinociceptive activity in Sprague-Dawley rat model assessed as effective dose administered intrathecally and measured every 10 mins for 60 mins by radiant heat tail-flick test; assay type: functional; conditions: central, 1 h
[22] = test system: Rattus norvegicus; experiment: Antinociceptive activity in Sprague-Dawley rat model of formalin-induced nociception pain assessed as reduction in pain behaviour by measuring less lifting of formalin injected hind paw during acute phase at 30 to 150 microg/kg, IT measured for 9 mins; assay type: functional, organism-based; conditions: dose 30-150 µg/kg
[23] = test system: Rattus norvegicus; experiment: Antinociceptive activity in Sprague-Dawley rat model of formalin-induced nociception pain assessed as reduction in pain behaviour by measuring less lifting of formalin injected hind paw during inflammatory phase at 30 to 150 microg/kg, IT; assay type: functional, organism-based; conditions: dose 30-150 µg/kg, time 21-60 min
[24] = test system: Rattus norvegicus; experiment: Antiallodynic activity in Sprague-Dawley rat model of complete Freund's adjuvant-induced chronic inflammatory pain assessed as increase in paw withdrawl threshold at 150 microg/kg, IT dosed on day 7 and 14 measured at 15 to 120 mins post dose relative to control; assay type: functional; conditions: dose 150 µg/kg; time 7-14 day
[25] = Cardiotoxicity in Sprague-Dawley rat assessed as decrease in mean arterial blood pressure at 0.1 mg/kg, iv measured up to 1000 seconds; assay type: toxicity, organism-based; conditions: in vivo, time <=1000 sec
[26] = Cardiotoxicity in Sprague-Dawley rat assessed as induction of […] at 1 mg/kg, iv measured up to 1000 seconds; assay type: toxicity, organism-based; conditions: in vivo, 0.2778 h, time 1000 sec
[27] = Induction of hypothermia in Sprague-Dawley rat assessed as reduction in body temperature at 150 microg/kg, IT measured every 10 mins upto 60 mins by thermistor probe analysis; conditions: in vivo, icv_or_intrathecal, 0.15 mg/kg, dose 150 µg/kg
[28] = test system: Ileum; experiment: Myorelaxant activity in Sprague-Dawley rat ileum assessed as reduction in carbachol-induced contractions at 10 ^-11 to 10^-5 M by force transducer relaxation assay; assay type: tissue-based; conditions: dose lower 1e-05 µM, dose upper 10 µM
[29] = test system: Rattus norvegicus; experiment: Antinociceptive activity in Sprague-Dawley rat model assessed as effective dose administered intrathecally and co-treated with opioid antagonist naloxone and measured every 10 mins for 60 mins by radiant heat tail-flick test; assay type: functional, organism-based
[30] = Cardiotoxicity in Sprague-Dawley rat assessed as decrease in mean arterial blood pressure at 0.01 to 1 mg/kg, iv measured up to 1000 seconds; assay type: toxicity, organism-based; conditions: in vivo, dose 0.01-1 mg/kg, time <=1000 sec
[31] = test system: Rattus norvegicus; experiment: Antinociceptive activity in Sprague-Dawley rat model administered subcutaneously and measured every 10 mins for 60 mins by radiant heat tail-flick test; assay type: functional, organism-based; conditions: dose 1-10 mg/kg
[32] = test system: Rattus norvegicus; experiment: Antinociceptive activity in Sprague-Dawley rat model assessed as maximum possible effect at 10 mg/kg, sc measured every 10 mins for 60 mins by radiant heat tail-flick test relative to control; assay type: functional; conditions: 1 h
[33] = organism: Rattus norvegicus; experiment: animal or person; conditions: Sprague-Dawley, sc, 1 h
Description: Antinociceptive activity in Sprague-Dawley rat model assessed as effective dose administered subcutaneously and measured every 10 mins for 60 mins by radiant heat tail-flick test

[34] = molecular target: Neurotensin receptor type 1 (Mus musculus, UniProt O88319); experiment: Displacement of [3H]-neurotensin from NTS1 in mouse brain membrane incubated for 30 mins by liquid scintillation counter analysis; assay type: cell membranes
Sequence of Neurotensin receptor type 1 (Mus musculus, UniProt O88319) (O88319 whole entry): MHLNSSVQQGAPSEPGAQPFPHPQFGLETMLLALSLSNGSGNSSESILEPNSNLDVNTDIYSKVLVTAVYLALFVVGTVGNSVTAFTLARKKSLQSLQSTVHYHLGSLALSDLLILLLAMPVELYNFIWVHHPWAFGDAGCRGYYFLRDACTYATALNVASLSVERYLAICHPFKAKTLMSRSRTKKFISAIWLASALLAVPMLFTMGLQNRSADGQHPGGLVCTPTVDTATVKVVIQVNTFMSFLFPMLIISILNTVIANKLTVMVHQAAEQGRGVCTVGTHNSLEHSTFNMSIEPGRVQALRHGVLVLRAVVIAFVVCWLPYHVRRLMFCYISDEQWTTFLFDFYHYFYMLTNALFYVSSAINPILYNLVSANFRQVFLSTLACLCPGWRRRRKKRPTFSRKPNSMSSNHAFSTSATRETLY

T1 sequence (O95665 whole entry): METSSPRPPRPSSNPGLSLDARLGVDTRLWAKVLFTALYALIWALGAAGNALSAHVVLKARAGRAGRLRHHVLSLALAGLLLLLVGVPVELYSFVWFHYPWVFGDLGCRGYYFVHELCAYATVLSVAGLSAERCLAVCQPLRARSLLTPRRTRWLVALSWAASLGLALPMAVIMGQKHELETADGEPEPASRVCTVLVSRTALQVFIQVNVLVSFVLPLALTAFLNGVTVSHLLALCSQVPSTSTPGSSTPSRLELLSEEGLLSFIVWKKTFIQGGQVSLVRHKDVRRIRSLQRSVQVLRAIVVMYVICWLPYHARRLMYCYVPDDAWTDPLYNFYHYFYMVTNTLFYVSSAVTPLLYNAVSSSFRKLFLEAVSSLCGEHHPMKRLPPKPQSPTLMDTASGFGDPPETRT
Sequence of Neurotensin receptor type 1 (Homo sapiens, UniProt P30989) (P30989 whole entry): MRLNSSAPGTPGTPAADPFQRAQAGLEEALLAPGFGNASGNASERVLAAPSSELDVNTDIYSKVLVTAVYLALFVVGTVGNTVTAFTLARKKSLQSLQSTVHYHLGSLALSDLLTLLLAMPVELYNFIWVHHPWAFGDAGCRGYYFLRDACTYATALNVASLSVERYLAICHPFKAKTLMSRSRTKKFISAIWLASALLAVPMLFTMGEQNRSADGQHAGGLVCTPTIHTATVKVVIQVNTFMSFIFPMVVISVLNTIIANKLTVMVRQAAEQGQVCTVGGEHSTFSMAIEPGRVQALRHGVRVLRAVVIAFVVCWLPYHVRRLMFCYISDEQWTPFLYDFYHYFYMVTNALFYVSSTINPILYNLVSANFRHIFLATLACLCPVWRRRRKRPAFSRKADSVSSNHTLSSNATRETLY

CC[C@H](C)[C@H](NC(=O)[C@@H]1Cc2ccc(O)c(c2)C/C=C/CNCCCC[C@H](N)C(=O)N[C@@H](CCCCN)C(=O)N2CCC[C@H]2C(=O)N1)C(=O)N[C@@H](CC(C)C)C(=O)O
Ki [1]: 11 µM

CSCC[C@@H]1NC(=O)[C@H](CC(C)C)NC(=O)[C@H](CCCNC(=N)N)NC(=O)[C@H](CO)NC(=O)[C@@H]2CSSC[C@@H]3NC(=O)[C@H](CO)NC(=O)CNC(=O)[C@H]([C@@H](C)O)NC(=O)[C@H](CSSC[C@H](N)C(=O)N[C@@H](CCCCN)C(=O)NCC(=O)N[C@@H](CCCCN)C(=O)NCC(=O)N[C@@H](C)C(=O)N[C@@H](CCCCN)C(=O)N2)NC(=O)[C@H](CSSC[C@@H](C(N)=O)NC(=O)[C@H](CCCCN)NC(=O)CNC(=O)[C@H](CO)NC(=O)[C@H](CCCNC(=N)N)NC3=O)NC(=O)[C@H](CC(=O)O)NC(=O)[C@H](Cc2ccc(O)cc2)NC1=O [ZICONOTIDE]
Activity [2]: Active
Activity [3]: Toxic
Activity [4]: Toxic
Activity [5]: Toxic
Activity [6]: Toxic
Activity [7]: Toxic
Activity [8]: Toxic
Activity [9]: Active

CC(C)C[C@H](NC(=O)[C@H](Cc1ccc(O)cc1)NC(=O)[C@@H]1C/C=C\C[C@H](N)C(=O)N[C@@H](CCCCN)C(=O)N[C@@H](CCCCN)C(=O)N1)C(=O)O
Ki [10]: > 100 µM
Ki [11]: 0.05 µM
half-life at 1000 µM [12]: 15 min
half-life at 1000 µM [13]: > 1440 min
Activity [14]: Dose-dependent effect
Emax [15]: 90 µg/kg
MPE [16]: 13.1%
MPE [17]: 32.5%
MPE [18]: 73.1%
MPE [19]: 98.6%
MPE [20]: 98.5%
ED50 [21]: 0.0438 mg/kg
Activity [22]: Active
Activity [23]: Active
Activity [24]: <=45%
Activity [25]: Non-Toxic
Activity [26]: Toxic
Activity [27]: Non-Toxic
Activity [28]: Non-Toxic
Activity [29]: Active
Activity [30]: Non-Toxic

CC[C@H](C)[C@H](NC(=O)[C@@H]1Cc2ccc(O)c(c2)C/C=C/CNCCC[C@H](N)C(=O)N[C@@H](CCCCN)C(=O)N2CCC[C@H]2C(=O)N1)C(=O)N[C@@H](CC(C)C)C(=O)O
MPE [20]: 50%
Ki [1]: 0.0045 µM

CN1CC[C@]23c4c5ccc(O)c4O[C@H]2[C@@H](O)C=C[C@H]3[C@H]1C5 [MORPHINE]
Activity [31]: Dose-dependent effect
MPE [32]: 83.3%
ED50 [33]: 3.6 mg/kg

CC(C)C[C@H](NC(=O)[C@@H]1CCCC(=O)N[C@@H](CCCNC(=N)N)C(=O)N[C@@H](CCCCN)C(=O)N2CCC[C@H]2C(=O)N[C@@H](Cc2c[nH]c3ccccc23)C(=O)N1)C(=O)O (RKPW[Aad]L-OH; lactam N-5)
Ki [34]: 0.016 µM

CC(C)C[C@@H]1NC(=O)[C@H](C(C)(C)C)NC(=O)[C@H](Cc2c[nH]c3ccccc23)NC(=O)[C@@H]2CCCN2C(=O)[C@H](CCCCN)NC(=O)[C@H](CCCNC(=N)N)NC1=O (cyclo(KPW[Tle]LR))
Ki [34]: 0.41 µM
